{"source": "ChEMBL document CHEMBL3638687", "about": "“N-biphenylmethylindole modulators of PPARG” (2015)", "data": [{"biological_target": "T1, Peroxisome proliferator-activated receptor gamma (Homo sapiens, UniProt P37231)", "T1 sequence (P37231 whole entry)": "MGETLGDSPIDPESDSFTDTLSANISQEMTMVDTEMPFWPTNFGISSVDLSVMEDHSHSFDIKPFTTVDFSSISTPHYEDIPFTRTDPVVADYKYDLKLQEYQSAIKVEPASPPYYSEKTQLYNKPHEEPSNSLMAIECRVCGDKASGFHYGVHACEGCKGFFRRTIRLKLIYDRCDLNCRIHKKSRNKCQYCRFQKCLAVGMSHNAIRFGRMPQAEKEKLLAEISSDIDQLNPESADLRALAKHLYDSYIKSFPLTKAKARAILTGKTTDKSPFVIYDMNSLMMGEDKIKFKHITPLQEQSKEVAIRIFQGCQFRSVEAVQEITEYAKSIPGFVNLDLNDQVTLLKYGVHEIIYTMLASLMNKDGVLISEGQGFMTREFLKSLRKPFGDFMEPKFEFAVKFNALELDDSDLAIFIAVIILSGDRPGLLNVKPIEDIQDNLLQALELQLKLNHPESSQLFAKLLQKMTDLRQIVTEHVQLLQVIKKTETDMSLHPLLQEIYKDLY", "experiment": "Lanthascreen Competitive Binding Assay: The assay was performed according to manufacturer protocol. A mixture of […], 5 nM Tb-GST-antibody, 5 nM Fluormone Pan-PPAR Green, and serial dilutions of the experimental compound, beginning at 10 μM downwards, was added to wells of black 384-well low-volume plates (Greiner) to a total volume of 18 μL. All dilutions were made in TR-FRET assay buffer C. DMSO at 2% final concentration was used as a no-ligand control. Experiment was performed in triplicate, and incubated for 2 hours in the dark prior to assay read in Perkin Elmer ViewLux ultra HTS microplate reader. FRET signal was measured by excitation at 340 nm and emission at 520 nm for fluorescein and 490 nm for terbium. Fold change over DMSO was calculated using GraphPad Prism Software (La Jolla, Calif.) by calculating 520 nm/490 nm ratio. Graphs were plotted as fold change of FRET signal for compound treatment over DMSO-only control.", "units": {"IC50": "nM"}, "values": [{"smiles": "CCC(NC(=O)c1ccc2c(c1)cc(C)n2Cc1ccc(-c2ccccc2C(=O)O)cc1)c1ccccc1", "note": "(stereo unspecified)", "IC50": 2}, {"smiles": "Cc1c(C)n(Cc2ccc(-c3ccccc3C(=O)O)cc2)c2ccc(C(=O)N[C@@H](C)c3cccc(OC(C)C)c3)cc12", "IC50": 19}, {"smiles": "Cc1cn(Cc2ccc(-c3ccccc3C(=O)O)cc2)c2ccc(C(=O)N[C@@H](C)c3ccc([N+](=O)[O-])cc3)cc12", "IC50": 126}, {"smiles": "Cc1c(C)n(Cc2ccc(-c3ccccc3C(=O)O)cc2)c2ccc(C(=O)N[C@@H](C)C3CCN(C(=O)NCc4ccccc4)CC3)cc12", "IC50": 805}, {"smiles": "CC[C@H](NC(=O)c1ccc2c(c1)c(C)c(C)n2Cc1ccccc1-c1ccc(C(=O)O)cc1)c1ccccc1", "IC50": "> 1000"}, {"smiles": "Cc1c(C)n(Cc2ccc(-c3ccccc3C(=O)O)cc2)c2ccc(C(=O)N[C@@H](C)c3ccc(OC(C)C)cc3)cc12", "IC50": 34}, {"smiles": "CCC(NC(=O)c1ccc2c(c1)c(C)c(C)n2Cc1ccc(-c2ccccc2C#N)cc1)c1ccccc1", "note": "(stereo unspecified)", "IC50": 0.54}, {"smiles": "Cc1c(C)n(Cc2ccc(-c3ccccc3C(=O)O)cc2)c2ccc(C(=O)N[C@H]3CCN(C(=O)OCc4ccccc4)C3)cc12", "IC50": 536}, {"smiles": "CCC(NC(=O)c1ccc2c(c1)c(C)cn2Cc1ccc(-c2ccccc2C(=O)O)cc1)c1ccccc1", "note": "(stereo unspecified)", "IC50": 2}, {"smiles": "Cc1c(C)n(Cc2ccc(-c3cccnc3)cc2)c2ccc(C(=O)N[C@@H](C)c3ccc([N+](=O)[O-])cc3)cc12", "IC50": 150}, {"smiles": "CC[C@H](NC(=O)c1ccc2c(c1)c(C)c(C)n2Cc1ccccc1-c1cccc(C(=O)O)c1)c1ccccc1", "IC50": 80}, {"smiles": "CC[C@@H](NC(=O)c1ccc2c(c1)c(C)c(C)n2Cc1ccccc1-c1ccc(C(=O)O)cc1)c1ccccc1", "IC50": 80}, {"smiles": "Cc1c(C)n(Cc2ccc(-c3ccccc3C(=O)O)cc2)c2ccc(C(=O)NCc3ccc(F)c(F)c3)cc12", "IC50": 31}, {"smiles": "Cc1c(C)n(Cc2ccc(-c3ccccc3C(=O)O)cc2)c2ccc(C(=O)N[C@@H](C)c3ccc(OC(C)(C)C)cc3)cc12", "IC50": 449}, {"smiles": "Cc1c(C)n(Cc2ccc(-c3ccccc3C(=O)O)cc2)c2ccc(C(=O)N[C@@H](C)c3ccc(Cl)c(C(F)(F)F)c3)cc12", "IC50": 15}, {"smiles": "CC[C@@H](NC(=O)c1ccc2c(c1)c(C)c(C)n2Cc1ccccc1-c1cccc(C(=O)O)c1)c1ccccc1", "IC50": 20}]}]}
